Data from patent publication US20110071108A1, “Beta-Cyclodextrin Derivatives as Antibacterial Agents” (Pinnacle Pharmaceuticals, Inc., priority 2005, published 2011).

Tests used:
Experiment in all cases: Bacterial panel testing, MIC by broth microdilution
Assay type in all cases: cell-based
Conditions in all cases: 20-24 hours growth
[1] = tested on: Salmonella choleraesuis
How it was run: (§1)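 MIC via two-fold broth microdilution of compound (diluted to 10 μg/ml in DMSO) in McFarland-standardized, diluted inoculum in Mueller-Hinton or Brain Heart infusion media. Plates sealed (E. faecium with air-pore tape), incubated 20-24 h; clear wells read. Rifampicin included as control.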

[2] = tested on: Enterococcus faecium
How it was run: as §1

[3] = tested on: Staphylococcus aureus
How it was run: as §1

[4] = tested on: Eschericia coli
How it was run: as §1

[5] = tested on: Bacillus atrophaeus
How it was run: as §1

[6] = tested on: Pseudomonas aeruginosa
How it was run: as §1

Compound: OC1C2OC(CN3CCN(c4ccccn4)CC3)C(OC3OC(CN4CCN(c5ccccn5)CC4)C(OC4OC(CN5CCN(c6ccccn6)CC5)C(OC5OC(CN6CCN(c7ccccn7)CC6)C(OC6OC(CN7CCN(c8ccccn8)CC7)C(OC7OC(CN8CCN(c9ccccn9)CC8)C(OC8OC(CN9CCN(c%10ccccn%10)CC9)C(O2)C(O)C8O)C(O)C7O)C(O)C6O)C(O)C5O)C(O)C4O)C(O)C3O)C1O (stereo not drawn)
- MIC SC [1]: >200 µg/mL
- MIC EF [2]: >200 µg/mL
- MIC SA [3]: >200 µg/mL
- MIC EC [4]: >200 µg/mL
- MIC BA [5]: >200 µg/mL
- MIC PA [6]: >200 µg/mL

Compound: O[C@@H]1[C@@H](O)[C@H]2O[C@H]3[C@H](O)[C@@H](O)[C@@H](O[C@H]4[C@H](O)[C@@H](O)[C@@H](O[C@H]5[C@H](O)[C@@H](O)[C@@H](O[C@H]6[C@H](O)[C@@H](O)[C@@H](O[C@H]7[C@H](O)[C@@H](O)[C@@H](O[C@H]8[C@H](O)[C@@H](O)[C@@H](O[C@@H]1[C@@H](CN1CCOCC1)O2)O[C@@H]8CN1CCOCC1)O[C@@H]7CN1CCOCC1)O[C@@H]6CN1CCOCC1)O[C@@H]5CN1CCOCC1)O[C@@H]4CN1CCOCC1)O[C@@H]3CN1CCOCC1
- MIC SC [1]: >200 µg/mL
- MIC EF [2]: >200 µg/mL
- MIC SA [3]: >200 µg/mL
- MIC EC [4]: >200 µg/mL
- MIC BA [5]: >200 µg/mL
- MIC PA [6]: >200 µg/mL

Compound: CC(C)(C)OC(=O)NCCCC[C@H](N)C(=O)NCC1OC2OC3C(CNC(=O)[C@@H](N)CCCCNC(=O)OC(C)(C)C)OC(OC4C(CNC(=O)[C@@H](N)CCCCNC(=O)OC(C)(C)C)OC(OC5C(CNC(=O)[C@@H](N)CCCCNC(=O)OC(C)(C)C)OC(OC6C(CNC(=O)[C@@H](N)CCCCNC(=O)OC(C)(C)C)OC(OC7C(CNC(=O)[C@@H](N)CCCCNC(=O)OC(C)(C)C)OC(OC8C(CNC(=O)[C@@H](N)CCCCNC(=O)OC(C)(C)C)OC(OC1C(O)C2O)C(O)C8O)C(O)C7O)C(O)C6O)C(O)C5O)C(O)C4O)C(O)C3O (stereo partly drawn)
- MIC SC [1]: >200 µg/mL
- MIC EF [2]: >200 µg/mL
- MIC SA [3]: >200 µg/mL
- MIC EC [4]: >200 µg/mL
- MIC BA [5]: >200 µg/mL
- MIC PA [6]: >200 µg/mL

Compound: OC1C2OC(CNc3ccccc3)C(OC3OC(CNc4ccccc4)C(OC4OC(CNc5ccccc5)C(OC5OC(CNc6ccccc6)C(OC6OC(CNc7ccccc7)C(OC7OC(CNc8ccccc8)C(OC8OC(CNc9ccccc9)C(O2)C(O)C8O)C(O)C7O)C(O)C6O)C(O)C5O)C(O)C4O)C(O)C3O)C1O (stereo not drawn)
- MIC SC [1]: >200 µg/mL
- MIC EF [2]: >200 µg/mL
- MIC SA [3]: >200 µg/mL
- MIC EC [4]: >200 µg/mL
- MIC BA [5]: >200 µg/mL
- MIC PA [6]: >200 µg/mL

Compound: CSCCC(N)C(=O)NCC1OC2OC3C(CNC(=O)C(N)CCSC)OC(OC4C(CNC(=O)C(N)CCSC)OC(OC5C(CNC(=O)C(N)CCSC)OC(OC6C(CNC(=O)C(N)CCSC)OC(OC7C(CNC(=O)C(N)CCSC)OC(OC8C(CNC(=O)C(N)CCSC)OC(OC1C(O)C2O)C(O)C8O)C(O)C7O)C(O)C6O)C(O)C5O)C(O)C4O)C(O)C3O.Cl.Cl.Cl.Cl.Cl.Cl.Cl (stereo not drawn)
- MIC SC [1]: >200 µg/mL
- MIC EF [2]: >200 µg/mL
- MIC SA [3]: >200 µg/mL
- MIC EC [4]: >200 µg/mL
- MIC BA [5]: >200 µg/mL
- MIC PA [6]: >200 µg/mL

Compound: OC1C2OC(CNC(=S)NCc3ccccc3)C(OC3OC(CNC(=S)NCc4ccccc4)C(OC4OC(CNC(=S)NCc5ccccc5)C(OC5OC(CNC(=S)NCc6ccccc6)C(OC6OC(CNC(=S)NCc7ccccc7)C(OC7OC(CNC(=S)NCc8ccccc8)C(OC8OC(CNC(=S)NCc9ccccc9)C(O2)C(O)C8O)C(O)C7O)C(O)C6O)C(O)C5O)C(O)C4O)C(O)C3O)C1O (stereo not drawn)
- MIC SC [1]: >200 µg/mL
- MIC EF [2]: >200 µg/mL
- MIC SA [3]: >200 µg/mL
- MIC EC [4]: >200 µg/mL
- MIC BA [5]: >200 µg/mL
- MIC PA [6]: >200 µg/mL

Compound: CN(C)C[C@H]1O[C@@H]2O[C@H]3[C@H](O)[C@@H](O)[C@@H](O[C@H]4[C@H](O)[C@@H](O)[C@@H](O[C@H]5[C@H](O)[C@@H](O)[C@@H](O[C@H]6[C@H](O)[C@@H](O)[C@@H](O[C@H]7[C@H](O)[C@@H](O)[C@@H](O[C@H]8[C@H](O)[C@@H](O)[C@@H](O[C@H]1[C@H](O)[C@H]2O)O[C@@H]8CN(C)C)O[C@@H]7CN(C)C)O[C@@H]6CN(C)C)O[C@@H]5CN(C)C)O[C@@H]4CN(C)C)O[C@@H]3CN(C)C
- MIC SC [1]: >200 µg/mL
- MIC EF [2]: >200 µg/mL
- MIC SA [3]: >200 µg/mL
- MIC EC [4]: >200 µg/mL
- MIC BA [5]: <0.2 µg/mL
- MIC PA [6]: >200 µg/mL

Compound: Cl.Cl.Cl.Cl.Cl.Cl.Cl.NCCCC(=O)NC[C@H]1O[C@@H]2O[C@H]3[C@H](O)[C@@H](O)[C@@H](O[C@H]4[C@H](O)[C@@H](O)[C@@H](O[C@H]5[C@H](O)[C@@H](O)[C@@H](O[C@H]6[C@H](O)[C@@H](O)[C@@H](O[C@H]7[C@H](O)[C@@H](O)[C@@H](O[C@H]8[C@H](O)[C@@H](O)[C@@H](O[C@H]1[C@H](O)[C@H]2O)O[C@@H]8CNC(=O)CCCN)O[C@@H]7CNC(=O)CCCN)O[C@@H]6CNC(=O)CCCN)O[C@@H]5CNC(=O)CCCN)O[C@@H]4CNC(=O)CCCN)O[C@@H]3CNC(=O)CCCN
- MIC SC [1]: >200 µg/mL
- MIC EF [2]: >200 µg/mL
- MIC SA [3]: >200 µg/mL
- MIC EC [4]: >200 µg/mL
- MIC BA [5]: >200 µg/mL
- MIC PA [6]: >200 µg/mL

Compound: Cl.Cl.Cl.Cl.Cl.Cl.Cl.Cl.Cl.Cl.Cl.Cl.Cl.Cl.Cl.Cl.Cl.Cl.Cl.Cl.Cl.NCCCCC(N)C(=O)NC(CCCCN)C(=O)NCC1OC2OC3C(CNC(=O)C(CCCCN)NC(=O)C(N)CCCCN)OC(OC4C(CNC(=O)C(CCCCN)NC(=O)C(N)CCCCN)OC(OC5C(CNC(=O)C(CCCCN)NC(=O)C(N)CCCCN)OC(OC6C(CNC(=O)C(CCCCN)NC(=O)C(N)CCCCN)OC(OC7C(CNC(=O)C(CCCCN)NC(=O)C(N)CCCCN)OC(OC8C(CNC(=O)C(CCCCN)NC(=O)C(N)CCCCN)OC(OC1C(O)C2O)C(O)C8O)C(O)C7O)C(O)C6O)C(O)C5O)C(O)C4O)C(O)C3O (stereo not drawn)
- MIC SC [1]: >200 µg/mL
- MIC EF [2]: >200 µg/mL
- MIC SA [3]: >200 µg/mL
- MIC EC [4]: >200 µg/mL
- MIC BA [5]: >200 µg/mL
- MIC PA [6]: >200 µg/mL

Compound: CCCCCCCCCCCC[N+]12CC[N+](CC(=O)NCC3OC4OC5C(CNC(=O)C[N+]67CC[N+](CCCCCCCCCCCC)(CC6)CC7)OC(OC6C(CNC(=O)C[N+]78CC[N+](CCCCCCCCCCCC)(CC7)CC8)OC(OC7C(CNC(=O)C[N+]89CC[N+](CCCCCCCCCCCC)(CC8)CC9)OC(OC8C(CNC(=O)C[N+]9%10CC[N+](CCCCCCCCCCCC)(CC9)CC%10)OC(OC9C(CNC(=O)C[N+]%10%11CC[N+](CCCCCCCCCCCC)(CC%10)CC%11)OC(OC%10C(CNC(=O)C[N+]%11%12CC[N+](CCCCCCCCCCCC)(CC%11)CC%12)OC(OC3C(O)C4O)C(O)C%10O)C(O)C9O)C(O)C8O)C(O)C7O)C(O)C6O)C(O)C5O)(CC1)CC2 (stereo not drawn)
- MIC SC [1]: >200 µg/mL
- MIC EF [2]: >200 µg/mL
- MIC SA [3]: >200 µg/mL
- MIC EC [4]: >200 µg/mL
- MIC BA [5]: >200 µg/mL
- MIC PA [6]: >200 µg/mL

Compound: Oc1ccc(NC[C@H]2O[C@@H]3O[C@H]4[C@H](O)[C@@H](O)[C@@H](O[C@H]5[C@H](O)[C@@H](O)[C@@H](O[C@H]6[C@H](O)[C@@H](O)[C@@H](O[C@H]7[C@H](O)[C@@H](O)[C@@H](O[C@H]8[C@H](O)[C@@H](O)[C@@H](O[C@H]9[C@H](O)[C@@H](O)[C@@H](O[C@H]2[C@H](O)[C@H]3O)O[C@@H]9CNc2ccc(O)cc2)O[C@@H]8CNc2ccc(O)cc2)O[C@@H]7CNc2ccc(O)cc2)O[C@@H]6CNc2ccc(O)cc2)O[C@@H]5CNc2ccc(O)cc2)O[C@@H]4CNc2ccc(O)cc2)cc1
- MIC SC [1]: >200 µg/mL
- MIC EF [2]: >200 µg/mL
- MIC SA [3]: >200 µg/mL
- MIC EC [4]: >200 µg/mL
- MIC BA [5]: >200 µg/mL
- MIC PA [6]: >200 µg/mL

Compound: CC(=O)OC1C2OC(Cn3cc(Cc4ccccc4)nn3)C(OC3OC(Cn4cc(Cc5ccccc5)nn4)C(OC4OC(Cn5cc(Cc6ccccc6)nn5)C(OC5OC(Cn6cc(Cc7ccccc7)nn6)C(OC6OC(Cn7cc(Cc8ccccc8)nn7)C(OC7OC(Cn8cc(Cc9ccccc9)nn8)C(OC8OC(Cn9cc(Cc%10ccccc%10)nn9)C(O2)C(OC(C)=O)C8OC(C)=O)C(OC(C)=O)C7OC(C)=O)C(OC(C)=O)C6OC(C)=O)C(OC(C)=O)C5OC(C)=O)C(OC(C)=O)C4OC(C)=O)C(OC(C)=O)C3OC(C)=O)C1OC(C)=O (stereo not drawn)
- MIC SC [1]: >200 µg/mL
- MIC EF [2]: >200 µg/mL
- MIC SA [3]: >200 µg/mL
- MIC EC [4]: >200 µg/mL
- MIC BA [5]: >200 µg/mL
- MIC PA [6]: >200 µg/mL

Compound: CN(C)CCNC[C@H]1O[C@@H]2O[C@H]3[C@H](O)[C@@H](O)[C@@H](O[C@H]4[C@H](O)[C@@H](O)[C@@H](O[C@H]5[C@H](O)[C@@H](O)[C@@H](O[C@H]6[C@H](O)[C@@H](O)[C@@H](O[C@H]7[C@H](O)[C@@H](O)[C@@H](O[C@H]8[C@H](O)[C@@H](O)[C@@H](O[C@H]1[C@H](O)[C@H]2O)O[C@@H]8CNCCN(C)C)O[C@@H]7CNCCN(C)C)O[C@@H]6CNCCN(C)C)O[C@@H]5CNCCN(C)C)O[C@@H]4CNCCN(C)C)O[C@@H]3CNCCN(C)C
- MIC SC [1]: >200 µg/mL
- MIC EF [2]: >200 µg/mL
- MIC SA [3]: >200 µg/mL
- MIC EC [4]: >200 µg/mL
- MIC BA [5]: >200 µg/mL
- MIC PA [6]: >200 µg/mL

Compound: COCCNCC1OC2OC3C(CNCCOC)OC(OC4C(CNCCOC)OC(OC5C(CNCCOC)OC(OC6C(CNCCOC)OC(OC7C(CNCCOC)OC(OC8C(CNCCOC)OC(OC1C(O)C2O)C(O)C8O)C(O)C7O)C(O)C6O)C(O)C5O)C(O)C4O)C(O)C3O (stereo not drawn)
- MIC SC [1]: >200 µg/mL
- MIC EF [2]: >200 µg/mL
- MIC SA [3]: >200 µg/mL
- MIC EC [4]: >200 µg/mL
- MIC BA [5]: >200 µg/mL
- MIC PA [6]: >200 µg/mL
